Measurements from patent US8648066B2 (Exelixis, Inc., priority 2009, dated 2014).

target: mTOR/GbL/Raptor (mTORC1) (Homo sapiens, UniProt P42345); experiment: mTOR/GbL/Raptor (mTORC1) ELISA assay; format: biochemical; conditions: phosphorylation of 4E-BP1; 0.2 nM mTORC1, 10 μM ATP; read-out: IC50 in this assay (mTORC1 ELISA)
Procedure, shortened: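 ELISA read-out: phospho-4E-BP1 captured on Ni-chelate plates and detected with anti-phospho antibody plus HRP-anti-IgG luminescence. The kinase step ran 120 min at ambient temperature with 0.2 nM human mTORC1, 10 µM ATP, 50 nM His-4E-BP1, 10 mM MnCl2, pH 7.2 HEPES.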

| IC50 | Compound |
| --- | --- |
| ≤ 10 nM | CC1=Cc2ncnc(N3CCOc4ccc(-c5cnc6nc(C)[nH]c6c5)cc4C3)c2CC1(C)C [Example 553] |
| 10 to 50 nM | CC1(C)CCc2ncnc(N3CCOc4ccc(-c5cnc(N)c(S(=O)(=O)N6CCCC(N)C6)c5)cc4C3)c2C1 (stereo not drawn) [Example 444, 3-[(3-aminopiperidin-1-yl)sulfonyl]-5-[4-(6,6-dimethyl-5,6,7,8-tetrahydroquinazolin-4-yl)-2,3,4,5-tetrahydro-1,4-benzoxazepin-7-yl]pyridin-2-amine] |
| 50 to 250 nM | CN(C)C(=O)c1cc(-c2ccc3c(c2)CN(c2ncnc4c2CC(C)(C)CC4)CCO3)cnc1N [Example 379, 2-amino-5-[4-(6,6-dimethyl-5,6,7,8-tetrahydroquinazolin-4-yl)-2,3,4,5-tetrahydro-1,4-benzoxazepin-7-yl]-N,N-dimethylpyridine-3-carboxamide] |
| 50 to 250 nM | CC(N)CNS(=O)(=O)c1cc(-c2ccc3c(c2)CN(c2ncnc4c2CC(C)(C)CC4)CCO3)cnc1N (stereo not drawn) [Example 410, 2-amino-N-(2-aminopropyl)-5-[4-(6,6-dimethyl-5,6,7,8-tetrahydroquinazolin-4-yl)-2,3,4,5-tetrahydro-1,4-benzoxazepin-7-yl]pyridine-3-sulfonamide] |
| 10 to 50 nM | Cc1nc2ncc(-c3ccc4c(c3)CN(c3ncnc5c3CCCC5(C)C)CCO4)cc2[nH]1 [Example 485, 4-(8,8-dimethyl-5,6,7,8-tetrahydroquinazolin-4-yl)-7-(2-methyl-1H-imidazo[4,5-b]pyridin-6-yl)-2,3,4,5-tetrahydro-1,4-benzoxazepine] |
| ≤ 10 nM | Cc1nc2ncc(-c3ccc4c(c3)CN(c3nc(CNCC(F)F)nc5c3CC(C)(C)CC5)CCO4)cc2[nH]1 [Example 592, N-({6,6-dimethyl-4-[7-(2-methyl-1H-imidazo[4,5-b]pyridin-6-yl)-2,3-dihydro-1,4-benzoxazepin-4(5H)-yl]-5,6,7,8-tetrahydroquinazolin-2-yl}methyl)-2,2-difluoroethanamine] |
| 250 to 1000 nM | CN(C)S(=O)(=O)c1cncc(-c2ccc3c(c2)CN(c2ncnc4c2CC(C)(C)CC4)CCO3)c1 [Example 521, 5-[4-(6,6-dimethyl-5,6,7,8-tetrahydroquinazolin-4-yl)-2,3,4,5-tetrahydro-1,4-benzoxazepin-7-yl]-N,N-dimethylpyridine-3-sulfonamide] |
| 10 to 50 nM | CC[C@H]1CCc2c(ncnc2N2CCOc3ccc(-c4cnc(N)c(S(=O)(=O)NCC(C)(C)N)c4)cc3C2)C1 [Example 407, 2-amino-N-(2-amino-2-methylpropyl)-5-{4-[(7S)-7-ethyl-5,6,7,8-tetrahydroquinazolin-4-yl]-2,3,4,5-tetrahydro-1,4-benzoxazepin-7-yl]pyridine-3-sulfonamide] |
| 10 to 50 nM | Cc1nc2ncc(-c3ccc4c(c3)CN(c3nc(CN(C)C5CC5)nc5c3CC(C)(C)CC5)CCO4)cc2[nH]1 [Example 604, N-({6,6-dimethyl-4-[7-(2-methyl-1H-imidazo[4,5-b]pyridin-6-yl)-2,3-dihydro-1,4-benzoxazepin-4(5H)-yl]-5,6,7,8-tetrahydroquinazolin-2-yl}methyl)-N-methylcyclopropanamaine] |
| ≤ 10 nM | Cc1nc2ccc(-c3ccc4c(c3)CN(c3ncnc5c3CC(C)(C)CC5)CCO4)cc2[nH]1 [Example 65, 4-(6,6-dimethyl-5,6,7,8-tetrahydroquinazolin-4-yl)-7-(2-methyl-1H-benzimidazol-6-yl)-2,3,4,5-tetrahydro-1,4-benzoxazepine] |
| 50 to 250 nM | CC1(C)CCc2ncnc(N3CCOc4ccc(-c5cnc(N)c(NS(C)(=O)=O)c5)cc4C3)c2C1 [Example 620, N-{2-amino-5-[4-(6,6-dimethyl-5,6,7,8-tetrahydroquinazolin-4-yl)-2,3,4,5-tetrahydro-1,4-benzoxazepin-7-yl]pyridin-3-yl}methanesulfonamide] |

More lines, now with the values behind:

| Compound | IC50 |
| --- | --- |
| Cc1nc2ccc(-c3ccc4c(c3)CN(c3nc(CNC5CC5)nc(C)c3Cc3ccc(F)cc3)CCO4)cc2[nH]1 [Example 584, N-({5-[(4-fluorophenyl)methyl]-4-methyl-6-[7-(2-methyl-1H-benzimidazol-6-yl)-2,3-dihydro-1,4-benzoxazepin-4(5H)-yl]pyrimidin-2-yl}methyl)cyclopropanamine] | ≤ 10 nM |
| CSc1nc2c(c(N3CCOc4ccc(-c5ccc6nc(C)[nH]c6c5)cc4C3)n1)CCC2 [Example 49, 7-(2-methyl-1H-benzimidazol-6-yl)-4-[2-(methylthio)-6,7-dihydro-5H-cyclopenta[d]pyrimidin-4-yl]-2,3,4,5-tetrahydro-1,4-benzoxazepine] | 50 to 250 nM |
| CCc1ncnc(N2CCOc3ccc(-c4ccc5nc(C)[nH]c5c4)cc3C2)c1CC [Example 58, 4-(5,6-diethylpyrimidin-4-yl)-7-(2-methyl-1H-benzimidazol-6-yl)-2,3,4,5-tetrahydro-1,4-benzoxazepine] | 50 to 250 nM |
| COC(=O)Nc1nc2ccc(-c3ccc4c(c3)CN(c3ncnc5[nH]ccc35)CCO4)cc2[nH]1 [Example 110, methyl {6-[4-(7H-pyrrolo[2,3-d]pyrimidin-4-yl)-2,3,4,5-tetrahydro-1,4-benzoxazepin-7-yl]-1H-benzimidazol-2-yl}carbamate] | ≥ 2000 nM |
| Cc1nc2ccc(-c3ccc4c(c3)CN(c3ccnc(C)c3Cc3ccc(F)cc3)CCO4)cc2[nH]1 [Example 102, 4-{3-[(4-fluorophenyl)methyl]-2-methylpyridin-4-yl}-7-(2-methyl-1H-benzimidazol-6-yl)-2,3,4,5-tetrahydro-1,4-benzoxazepine] | ≤ 10 nM |
| c1cc(N2CCOc3ccc(-c4cnc5nc[nH]c5c4)cc3C2)ncn1 [Example 543, 7-(1H-imidazo[4,5-b]pyridin-6-yl)-4-pyrimidin-4-yl-2,3,4,5-tetrahydro-1,4-benzoxazepine] | 1000 to 2000 nM |
| Cc1nc2ncc(-c3ccc4c(c3)CN(c3ncnc(Cl)c3C)CCO4)cc2[nH]1 [Example 481, 4-(6-chloro-5-methylpyrimidin-4-yl)-7-(2-methyl-1H-imidazo[4,5-b]pyridin-6-yl)-2,3,4,5-tetrahydro-1,4-benzoxazepine] | 50 to 250 nM |
| Cc1nc2ccc(-c3ccc4c(c3)CN(c3ncnc5c3CCCC5)CCO4)cc2[nH]1 [Example 46, 7-(2-methyl-1H-benzimidazol-6-yl)-4-(5,6,7,8-tetrahydroquinazolin-4-yl)-2,3,4,5-tetrahydro-1,4-benzoxazepine] | 250 to 1000 nM |
| c1ccc2c(N3CCOc4ccc(-c5ccc6[nH]ncc6c5)cc4C3)ccnc2c1 [Example 138, 7-(1H-indazol-5-yl)-4-quinolin-4-yl-2,3,4,5-tetrahydro-1,4-benzoxazepine] | ≥ 2000 nM |
| CCNc1nc2ccc(-c3ccc4c(c3)CN(c3ncnc(Nc5ccc(OC)cc5)c3C)CCO4)cc2[nH]1 [Example 640, N-ethyl-6-[4-(5-methyl-6-{[4-(methyloxy)phenyl]amino}pyrimidin-4-yl)-2,3,4,5-tetrahydro-1,4-benzoxazepin-7-yl]-1H-benzimidazol-2-amine] | 250 to 1000 nM |
| CCc1nc(CN(C)C)nc(N2CCOc3ccc(-c4ccc5[nH]c(C)nc5c4)cc3C2)c1C [Example 343, 1-{4-ethyl-5-methyl-6-[7-(2-methyl-1H-benzimidazol-5-yl)-2,3-dihydro-1,4-benzoxazepin-4(5H)-yl]pyrimidin-2-yl}-N,N-dimethylmethanamine] | 1000 to 2000 nM |
| Cc1nc2cc(-c3ccc4c(c3)CN(c3nc(CN(C)C)nc(C)c3Cl)CCO4)ccc2[nH]1 [Example 677, 1-{5-chloro-4-methyl-6-[7-(2-methyl-1H-benzimidazol-5-yl)-2,3-dihydro-1,4-benzoxazepin-4(5H)-yl]pyrimidin-2-yl}-N,N-dimethylmethanamine] | ≥ 2000 nM |
| Cc1nc2ncc(-c3ccc4c(c3)CN(c3ncncc3C)CCO4)cc2[nH]1 [Example 169, 7-(2-methyl-1H-imidazo[4,5-b]pyridin-6-yl)-4-(5-methylpyrimidin-4-yl)-2,3,4,5-tetrahydro-1,4-benzoxazepine] | 250 to 1000 nM |
| CCc1c(C)nc(CN(C)C)nc1N1CCOc2ccc(-c3cnc4sc(N)nc4c3)cc2C1 [Example 662, 6-(4-{2-[(dimethylamino)methyl]-5-ethyl-6-methylpyrimidin-4-yl}-2,3,4,5-tetrahydro-1,4-benzoxazepin-7-yl)[1,3]thiazolo[5,4-b]pyridin-2-amine] | 50 to 250 nM |
| Cc1nc2ncc(-c3ccc4c(c3)CN(c3ncnc(C)c3Br)CCO4)cc2[nH]1 [Example 468, 4-(5-bromo-6-methylpyrimidin-4-yl)-7-(2-methyl-1H-imidazao[4,5-b]pyridin-6-yl)-2,3,4,5-tetrahydro-1,4-benzoxazepine] | 50 to 250 nM |
| Cc1nc(CN(C)C)nc(N2CCOc3ccc(-c4ccc5[nH]c(CF)nc5c4)cc3C2)c1C(C)C [Example 332, 1-[4-{7-[2-(fluoromethyl)-1H-benzimidazol-5-yl]-2,3-dihydro-1,4-benzoxazepin-4(5H)-yl}-6-methyl-5-(1-methylethyl)pyrimidin-2-yl]-N,N-dimethylmethanamine] | 50 to 250 nM |
| Cc1nc2ccc(-c3ccc4c(c3)CN(c3ccnc(Nc5ccccc5)n3)CCO4)cc2[nH]1 [Example 253, 4-[7-(2-methyl-1H-benzimidazol-6-yl)-2,3-dihydro-1,4-benzoxazepin-4(5H)-yl]-N-phenylpyrimidin-2-amine] | 50 to 250 nM |
| Cc1ncnc(N2CCOc3ccc(-c4cnc5nc[nH]c5c4)cc3C2)c1Cc1ccc(F)cc1 [Example 142, 4-{5-[(4-fluorophenyl)methyl]-6-methylpyrimidin-4-yl}-7-(1H-imidazo[4,5-b]pyridin-6-yl)-2,3,4,5-tetrahydro-1,4-benzoxazepine] | ≤ 10 nM |
| COc1ccc2c(N3CCOc4ccc(-c5cnc6sc(NC(C)=O)nc6c5)cc4C3)nc(CN(C)C)nc2c1 [Example 618, N-[6-(4-{2-[(dimethylamino)methyl]-7-(methyloxy)quinazolin-4-yl}-2,3,4,5-tetrahydro-1,4-benzoxazepin-7-yl)[1,3]thiazolo[5,4-b]pyridin-2-yl]acetamide] | 250 to 1000 nM |
